Laboratory results: PubChem BioAssay AID1919009 (Molecular Pharmacology Branch, DTP, NCI, 2023)
One block for each compound: values may come before it.

Test system: K24384-001-R-PDC complex spheroid growth
Test: Anticancer human tumor K24384-001-R-PDC patient-derived pancreatic adenocarcinoma cell line growth inhibition [AhR]
Settings: for IC50: curve of first compound; for viability, T/C: stronger effect = lower value
Summary of the method: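 Complex tumor spheroids co-cultured with HUVEC and human MSC stroma; AhR antagonists tested in combination with standard-of-care and investigational agents. Top concentration at or near clinical Cmax (else 10 microM), half-log dilutions; growth expressed as percent test/control.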

[1] = second compound 0.1 µM, first compound 0.0316 µM
[2] = second compound 0.1 µM, first compound 0.1 µM
[3] = second compound 0.1 µM, first compound 0.316 µM
[4] = second compound 0.1 µM, first compound 1 µM
[5] = second compound 0.316 µM, first compound 0.0316 µM
[6] = second compound 0.316 µM, first compound 0.1 µM
[7] = second compound 0.316 µM, first compound 0.316 µM
[8] = second compound 0.316 µM, first compound 1 µM
[9] = second compound 1 µM, first compound 0.0316 µM
[10] = second compound 1 µM, first compound 0.1 µM
[11] = second compound 1 µM, first compound 0.316 µM
[12] = second compound 1 µM, first compound 1 µM
[13] = second compound 3.16 µM, first compound 0.0316 µM
[14] = second compound 3.16 µM, first compound 0.1 µM
[15] = second compound 3.16 µM, first compound 0.316 µM
[16] = second compound 3.16 µM, first compound 1 µM
[17] = second compound 10 µM, first compound 0.0316 µM
[18] = second compound 10 µM, first compound 0.1 µM
[19] = second compound 10 µM, first compound 0.316 µM
[20] = second compound 10 µM, first compound 1 µM
[21] = second compound 0.1 µM, first compound 3.16 µM
[22] = second compound 0.1 µM, first compound 10 µM
[23] = second compound 0.316 µM, first compound 3.16 µM
[24] = second compound 0.316 µM, first compound 10 µM
[25] = second compound 1 µM, first compound 3.16 µM
[26] = second compound 1 µM, first compound 10 µM
[27] = second compound 3.16 µM, first compound 3.16 µM
[28] = second compound 3.16 µM, first compound 10 µM
[29] = second compound 10 µM, first compound 3.16 µM
[30] = second compound 10 µM, first compound 10 µM
[31] = second compound 0.1 µM, first compound 0.00949 µM
[32] = second compound 0.1 µM, first compound 0.03 µM
[33] = second compound 0.1 µM, first compound 0.0949 µM
[34] = second compound 0.1 µM, first compound 0.3 µM
[35] = second compound 0.316 µM, first compound 0.00949 µM
[36] = second compound 0.316 µM, first compound 0.03 µM
[37] = second compound 0.316 µM, first compound 0.0949 µM
[38] = second compound 0.316 µM, first compound 0.3 µM
[39] = second compound 1 µM, first compound 0.00949 µM
[40] = second compound 1 µM, first compound 0.03 µM
[41] = second compound 1 µM, first compound 0.0949 µM
[42] = second compound 1 µM, first compound 0.3 µM
[43] = second compound 3.16 µM, first compound 0.00949 µM
[44] = second compound 3.16 µM, first compound 0.03 µM
[45] = second compound 3.16 µM, first compound 0.0949 µM
[46] = second compound 3.16 µM, first compound 0.3 µM
[47] = second compound 10 µM, first compound 0.00949 µM
[48] = second compound 10 µM, first compound 0.03 µM
[49] = second compound 10 µM, first compound 0.0949 µM
[50] = second compound 10 µM, first compound 0.3 µM
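Wherever viability, T/C is given: percent of DMSO vehicle-treated spheroid viability set as 100%.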

IC50 (second compound 0.1 µM): 73.9 nM
IC50 (second compound 0.316 µM): 93.3 nM
IC50 (second compound 1 µM): 90.5 nM
IC50 (second compound 3.16 µM): 55.2 nM
IC50 (second compound 10 µM): < 3.16 nM
SMILES: CC1COCCN1c1cc(-c2ccnn2C)c2ccnc(-c3ccn[nH]3)c2n1 (stereo not given) + Cc1cncc(-c2nc(NCCc3c[nH]c4ccccc34)c3ncn(C(C)C)c3n2)c1
viability, T/C (second compound 0.1 µM, first compound 0.00316 µM): 88.3%
viability, T/C (second compound 0.1 µM, first compound 0.01 µM): 81.3%
viability, T/C [1]: 65.3%
viability, T/C [2]: 46.1%
viability, T/C [3]: 25.7%
viability, T/C [4]: 22.2%
viability, T/C (second compound 0.316 µM, first compound 0.00316 µM): 95.6%
viability, T/C (second compound 0.316 µM, first compound 0.01 µM): 95.8%
viability, T/C [5]: 89.1%
viability, T/C [6]: 46.4%
viability, T/C [7]: 31.8%
viability, T/C [8]: 20.5%
viability, T/C (second compound 1 µM, first compound 0.00316 µM): 94.5%
viability, T/C (second compound 1 µM, first compound 0.01 µM): 104%
viability, T/C [9]: 87.3%
viability, T/C [10]: 46.9%
viability, T/C [11]: 24.8%
viability, T/C [12]: 24.6%
viability, T/C (second compound 3.16 µM, first compound 0.00316 µM): 73%
viability, T/C (second compound 3.16 µM, first compound 0.01 µM): 88.3%
viability, T/C [13]: 69%
viability, T/C [14]: 30.1%
viability, T/C [15]: 27.3%
viability, T/C [16]: 27.7%
viability, T/C (second compound 10 µM, first compound 0.00316 µM): 7.24%
viability, T/C (second compound 10 µM, first compound 0.01 µM): 7.46%
viability, T/C [17]: 8.32%
viability, T/C [18]: 5.4%
viability, T/C [19]: 4.59%
viability, T/C [20]: 6.27%

IC50 (second compound 0.1 µM): 3220 nM
IC50 (second compound 0.316 µM): 4430 nM
IC50 (second compound 1 µM): 4740 nM
IC50 (second compound 3.16 µM): 1270 nM
IC50 (second compound 10 µM): < 31.6 nM
SMILES: CC1COCCN1c1cc(C2(S(C)(=N)=O)CC2)nc(-c2ccnc3[nH]ccc23)n1 (stereo not given) + Cc1cncc(-c2nc(NCCc3c[nH]c4ccccc34)c3ncn(C(C)C)c3n2)c1
viability, T/C [1]: 97.7%
viability, T/C [2]: 105%
viability, T/C [3]: 105%
viability, T/C [4]: 84.1%
viability, T/C [21]: 51.2%
viability, T/C [22]: 32.2%
viability, T/C [5]: 94.7%
viability, T/C [6]: 102%
viability, T/C [7]: 96.3%
viability, T/C [8]: 87.3%
viability, T/C [23]: 58.8%
viability, T/C [24]: 29.1%
viability, T/C [9]: 116%
viability, T/C [10]: 113%
viability, T/C [11]: 118%
viability, T/C [12]: 95%
viability, T/C [25]: 61.1%
viability, T/C [26]: 31.1%
viability, T/C [13]: 80.6%
viability, T/C [14]: 74.8%
viability, T/C [15]: 70%
viability, T/C [16]: 52%
viability, T/C [27]: 37.8%
viability, T/C [28]: 25.9%
viability, T/C [17]: 10.3%
viability, T/C [18]: 11.3%
viability, T/C [19]: 11.8%
viability, T/C [20]: 11.8%
viability, T/C [29]: 8.29%
viability, T/C [30]: 10.9%

IC50 (second compound 0.1 µM): 4410 nM
IC50 (second compound 0.316 µM): 2820 nM
IC50 (second compound 1 µM): 2820 nM
IC50 (second compound 3.16 µM): 1940 nM
IC50 (second compound 10 µM): < 31.6 nM
SMILES: COc1ccc([C@@H](O)c2cc(-c3ncnc4cc(N5CCOCC5)ccc34)c(F)cc2Cl)nn1 + Cc1cncc(-c2nc(NCCc3c[nH]c4ccccc34)c3ncn(C(C)C)c3n2)c1
viability, T/C [1]: 88%
viability, T/C [2]: 93.3%
viability, T/C [3]: 93.2%
viability, T/C [4]: 68.5%
viability, T/C [21]: 57.8%
viability, T/C [22]: 38.4%
viability, T/C [5]: 109%
viability, T/C [6]: 106%
viability, T/C [7]: 86.2%
viability, T/C [8]: 68.4%
viability, T/C [23]: 48%
viability, T/C [24]: 36.6%
viability, T/C [9]: 84.1%
viability, T/C [10]: 94.5%
viability, T/C [11]: 118%
viability, T/C [12]: 96.7%
viability, T/C [25]: 44.9%
viability, T/C [26]: 33.9%
viability, T/C [13]: 76.8%
viability, T/C [14]: 98.2%
viability, T/C [15]: 71.1%
viability, T/C [16]: 54.7%
viability, T/C [27]: 50.7%
viability, T/C [28]: 31.9%
viability, T/C [17]: 9.83%
viability, T/C [18]: 8.38%
viability, T/C [19]: 6.49%
viability, T/C [20]: 8.45%
viability, T/C [29]: 9.55%
viability, T/C [30]: 13.7%

IC50 (second compound 0.1 µM): > 300 nM
IC50 (second compound 0.316 µM): > 300 nM
IC50 (second compound 1 µM): > 300 nM
IC50 (second compound 3.16 µM): < 0.949 nM
IC50 (second compound 10 µM): < 0.949 nM
SMILES: Nc1ncn(C2CC(O)C(CO)S2)c(=O)n1 (stereo not given) + Cc1cncc(-c2nc(NCCc3c[nH]c4ccccc34)c3ncn(C(C)C)c3n2)c1
viability, T/C (second compound 0.1 µM, first compound 0.000949 µM): 122%
viability, T/C (second compound 0.1 µM, first compound 0.003 µM): 126%
viability, T/C [31]: 116%
viability, T/C [32]: 101%
viability, T/C [33]: 78.1%
viability, T/C [34]: 73.5%
viability, T/C (second compound 0.316 µM, first compound 0.000949 µM): 134%
viability, T/C (second compound 0.316 µM, first compound 0.003 µM): 137%
viability, T/C [35]: 122%
viability, T/C [36]: 119%
viability, T/C [37]: 98.1%
viability, T/C [38]: 84%
viability, T/C (second compound 1 µM, first compound 0.000949 µM): 173%
viability, T/C (second compound 1 µM, first compound 0.003 µM): 162%
viability, T/C [39]: 177%
viability, T/C [40]: 129%
viability, T/C [41]: 111%
viability, T/C [42]: 96%
viability, T/C (second compound 3.16 µM, first compound 0.000949 µM): 28.2%
viability, T/C (second compound 3.16 µM, first compound 0.003 µM): 38.4%
viability, T/C [43]: 43.5%
viability, T/C [44]: 28.2%
viability, T/C [45]: 29.9%
viability, T/C [46]: 27.4%
viability, T/C (second compound 10 µM, first compound 0.000949 µM): 18.1%
viability, T/C (second compound 10 µM, first compound 0.003 µM): 28.5%
viability, T/C [47]: 24.7%
viability, T/C [48]: 12.8%
viability, T/C [49]: 15.5%
viability, T/C [50]: 18.5%

IC50 (second compound 0.1 µM): 209 nM
IC50 (second compound 0.316 µM): 242 nM
IC50 (second compound 1 µM): 229 nM
IC50 (second compound 3.16 µM): 196 nM
IC50 (second compound 10 µM): < 9.49 nM
SMILES: O=C(C=Cn1cnc(-c2cc(C(F)(F)F)cc(C(F)(F)F)c2)n1)NNc1cnccn1 + Cc1cncc(-c2nc(NCCc3c[nH]c4ccccc34)c3ncn(C(C)C)c3n2)c1
viability, T/C [31]: 93.8%
viability, T/C [32]: 94.8%
viability, T/C [33]: 73.2%
viability, T/C [34]: 39.3%
viability, T/C (second compound 0.1 µM, first compound 0.949 µM): 27.4%
viability, T/C (second compound 0.1 µM, first compound 3 µM): 23.6%
viability, T/C [35]: 90.8%
viability, T/C [36]: 95.4%
viability, T/C [37]: 72.6%
viability, T/C [38]: 45.3%
viability, T/C (second compound 0.316 µM, first compound 0.949 µM): 29.2%
viability, T/C (second compound 0.316 µM, first compound 3 µM): 24.8%
viability, T/C [39]: 116%
viability, T/C [40]: 111%
viability, T/C [41]: 79.6%
viability, T/C [42]: 40.6%
viability, T/C (second compound 1 µM, first compound 0.949 µM): 26.4%
viability, T/C (second compound 1 µM, first compound 3 µM): 19.9%
viability, T/C [43]: 94.9%
viability, T/C [44]: 90.6%
viability, T/C [45]: 74.7%
viability, T/C [46]: 35.1%
viability, T/C (second compound 3.16 µM, first compound 0.949 µM): 25.1%
viability, T/C (second compound 3.16 µM, first compound 3 µM): 20.4%
viability, T/C [47]: 9.12%
viability, T/C [48]: 12.6%
viability, T/C [49]: 17.1%
viability, T/C [50]: 16.6%
viability, T/C (second compound 10 µM, first compound 0.949 µM): 15.1%
viability, T/C (second compound 10 µM, first compound 3 µM): 12.8%
